Test results reported in PubChem BioAssay AID1745844 (Carcinogenic Potency Database (CPDB), 2022).
Calls of active or inactive are those of the source. The rule behind the calls is not given here.

Test system: rodent lifetime carcinogenesis bioassay, tumor incidence TD50
Assay: carcinogenic potency in animals, long-term in vivo studies, CPDB compilation (AID 1745844)

Which results are given for `O=NN(CCO)CC(O)CO` (stereo not given)?
TD50 (hamster, strain Syrian Golden, females, by gavage, site: trachea, lesion: adenoma, dosed 50 weeks, study length 104 weeks): 52.7 mg/kg/day; TD50 (rat, strain Fischer 344, females, in drinking water, site: liver, lesion: hepatocellular carcinoma, dosed 75 weeks, study length 120 weeks): 11.5 mg/kg/day; TD50 (rat, strain Fischer 344, females, in drinking water, site: liver, lesion: neoplastic nodule, dosed 75 weeks, study length 120 weeks): 8.69 mg/kg/day; TD50 (rat, strain Fischer 344, females, in drinking water, site: liver, lesion: several types, types named in the paper, dosed 75 weeks, study length 120 weeks): 5.98 mg/kg/day

Which TD50 (mouse, strain B6C3F1, females, in feed, site: any site (literature study), lesion: several types, types named in the paper, dosed 104 weeks, study length 104 weeks) does the source give for `Cc1cc(O)c(C(C)(C)C)cc1Sc1cc(C(C)(C)C)c(O)cc1C` here?
The TD50 was 484 mg/kg/day (inactive).

What about the TD50 (mouse, strain B6C3F1, females, in feed, site: lung, lesion: alveolar/bronchiolar adenoma + alveolar/bronchiolar carcinoma, dosed 104 weeks, study length 104 weeks) of the same compound?
Its TD50 is 2020 mg/kg/day.

What about the carcinogen call (mouse, strain B6C3F1, males, in feed, site: any site (literature study), lesion: several types, types named in the paper, dosed 104 weeks, study length 104 weeks) of the same compound?
Its carcinogen call is “negative (inactive)”.

And the TD50 (rat, strain Fischer 344, females, in feed, site: any site (literature study), lesion: several types, types named in the paper, dosed 104 weeks, study length 104 weeks)?
The TD50 was 196 mg/kg/day.

What about the TD50 (rat, strain Fischer 344, females, in feed, site: liver, lesion: hepatocellular adenoma + hepatoblastoma + hepatocellular carcinoma, dosed 104 weeks, study length 104 weeks) of the same compound?
The TD50 was 3990 mg/kg/day.

And the TD50 (rat, strain Fischer 344, females, in feed, site: thyroid gland, lesion: c-cell adenoma + c-cell adenoma, bilateral, dosed 104 weeks, study length 104 weeks)?
The TD50 was 361 mg/kg/day.

What about the TD50 (rat, strain Fischer 344, females, in feed, site: thyroid gland, lesion: c-cell adenoma + c-cell carcinoma + c-cell adenoma, bilateral, dosed 104 weeks, study length 104 weeks) of the same compound?
Its TD50 is 325 mg/kg/day.

And the TD50 (rat, strain Fischer 344, females, in feed, site: uterus, lesion: endometrial stromal polyp + endometrial stromal sarcoma, dosed 104 weeks, study length 104 weeks)?
Its TD50 is 262 mg/kg/day (inactive).

What about the TD50 (rat, strain Fischer 344, females, in feed, site: uterus, lesion: endometrial stromal polyp, dosed 104 weeks, study length 104 weeks) of the same compound?
Its TD50 is 286 mg/kg/day.

What about the TD50 (rat, strain Fischer 344, males, in feed, site: any site (literature study), lesion: several types, types named in the paper, dosed 104 weeks, study length 104 weeks) of the same compound?
The TD50 was 449 mg/kg/day (inactive).

And the TD50 (rat, strain Fischer 344, males, in feed, site: liver, lesion: hepatocellular adenoma + hepatoblastoma + hepatocellular carcinoma, dosed 104 weeks, study length 104 weeks)?
The TD50 was 324 mg/kg/day.

How did the carcinogen call (rat, strain CB, males, i.p., site: liver, lesion: hepatoma, dosed 26 weeks, study length 100 weeks) turn out when `O=NN1CN2CN(C1)CN(N=O)C2` was run?
The carcinogen call was “negative (inactive)”.

Which results are given for `CCOC(=O)N(CC)N=O`?
TD50 (rat, strain Donryu, females, in drinking water, site: any site (literature study), lesion: several types, types named in the paper, dosed 51 weeks, study length 60 weeks): 0.0784 mg/kg/day; TD50 (rat, strain Donryu, females, in drinking water, site: duodenum, lesion: adenocarcinoma, dosed 51 weeks, study length 60 weeks): 0.555 mg/kg/day; TD50 (rat, strain Donryu, females, in drinking water, site: esophagus, lesion: papilloma, dosed 51 weeks, study length 60 weeks): 0.473 mg/kg/day; TD50 (rat, strain Donryu, females, in drinking water, site: esophagus, lesion: squamous-cell carcinoma, dosed 51 weeks, study length 60 weeks): 0.54 mg/kg/day; TD50 (rat, strain Donryu, females, in drinking water, site: forestomach, lesion: papilloma, dosed 51 weeks, study length 60 weeks): 0.508 mg/kg/day; TD50 (rat, strain Donryu, females, in drinking water, site: forestomach, lesion: squamous-cell carcinoma, dosed 51 weeks, study length 60 weeks): 0.248 mg/kg/day; TD50 (rat, strain Donryu, females, in drinking water, site: several sites, sites named in the paper, lesion: papilloma, dosed 51 weeks, study length 60 weeks): 0.339 mg/kg/day; TD50 (rat, strain Donryu, females, in drinking water, site: several sites, sites named in the paper, lesion: squamous-cell carcinoma, dosed 51 weeks, study length 60 weeks): 0.164 mg/kg/day; TD50 (rat, strain F344/DuCrj, females, in drinking water, site: any site (literature study), lesion: one or several types, types not named, dosed 97 weeks, study length 112 weeks): 0.135 mg/kg/day; TD50 (rat, strain F344/DuCrj, females, in drinking water, site: esophagus, lesion: papilloma, dosed 97 weeks, study length 112 weeks): 0.514 mg/kg/day; TD50 (rat, strain F344/DuCrj, females, in drinking water, site: esophagus, lesion: squamous-cell carcinoma, dosed 97 weeks, study length 112 weeks): 0.139 mg/kg/day; TD50 (rat, strain F344/DuCrj, females, in drinking water, site: forestomach, lesion: papilloma, dosed 97 weeks, study length 112 weeks): 0.0796 mg/kg/day; TD50 (rat, strain F344/DuCrj, females, in drinking water, site: forestomach, lesion: squamous-cell carcinoma, dosed 97 weeks, study length 112 weeks): 0.213 mg/kg/day; TD50 (rat, strain F344/DuCrj, females, in drinking water, site: oral cavity, lesion: papilloma, dosed 97 weeks, study length 112 weeks): 3.02 mg/kg/day; TD50 (rat, strain F344/DuCrj, females, in drinking water, site: oral cavity, lesion: squamous-cell carcinoma, dosed 97 weeks, study length 112 weeks): 0.784 mg/kg/day; TD50 (rat, strain F344/DuCrj, females, in drinking water, site: upper gastrointestinal tract, lesion: several types, types named in the paper, dosed 97 weeks, study length 112 weeks): 0.0553 mg/kg/day

Which results are given for `CC(=O)NNC(=O)c1ccncc1`?
TD50 (mouse, strain Swiss albino, females, in drinking water, site: liver, lesion: several types, types named in the paper, dosed 94 weeks, study length 94 weeks): 55700 mg/kg/day; TD50 (mouse, strain Swiss albino, females, in drinking water, site: lung, lesion: several types, types named in the paper, dosed 94 weeks, study length 94 weeks): 319 mg/kg/day; carcinogen call (mouse, strain Swiss albino, males, in drinking water, site: liver, lesion: hemangioma, dosed 92 weeks, study length 92 weeks): negative (inactive); TD50 (mouse, strain Swiss albino, males, in drinking water, site: lung, lesion: several types, types named in the paper, dosed 92 weeks, study length 92 weeks): 342 mg/kg/day

Which results are given for `c1ccc2sc(SNC3CCCCC3)nc2c1`?
carcinogen call (mouse, strain B6AKF1, females, oral dosing, site: any site (literature study), lesion: several types, types named in the paper, dosed 76 weeks, study length 76 weeks): negative (inactive); carcinogen call (mouse, strain B6AKF1, females, oral dosing, site: liver, lesion: hepatoma, dosed 76 weeks, study length 76 weeks): negative (inactive); carcinogen call (mouse, strain B6AKF1, females, oral dosing, site: lung, lesion: adenoma, dosed 76 weeks, study length 76 weeks): negative (inactive); carcinogen call (mouse, strain B6AKF1, males, oral dosing, site: any site (literature study), lesion: several types, types named in the paper, dosed 76 weeks, study length 76 weeks): negative (inactive); carcinogen call (mouse, strain B6AKF1, males, oral dosing, site: liver, lesion: hepatoma, dosed 76 weeks, study length 76 weeks): negative (inactive); carcinogen call (mouse, strain B6AKF1, males, oral dosing, site: lung, lesion: adenoma, dosed 76 weeks, study length 76 weeks): negative (inactive); TD50 (mouse, strain B6C3F1, females, oral dosing, site: any site (literature study), lesion: several types, types named in the paper, dosed 76 weeks, study length 76 weeks): 243 mg/kg/day (inactive); carcinogen call (mouse, strain B6C3F1, females, oral dosing, site: liver, lesion: hepatoma, dosed 76 weeks, study length 76 weeks): negative (inactive); carcinogen call (mouse, strain B6C3F1, females, oral dosing, site: lung, lesion: several types, types named in the paper, dosed 76 weeks, study length 76 weeks): negative (inactive); TD50 (mouse, strain B6C3F1, males, oral dosing, site: any site (literature study), lesion: several types, types named in the paper, dosed 76 weeks, study length 76 weeks): 50.8 mg/kg/day (inactive); TD50 (mouse, strain B6C3F1, males, oral dosing, site: liver, lesion: hepatoma, dosed 76 weeks, study length 76 weeks): 92.7 mg/kg/day (inactive); TD50 (mouse, strain B6C3F1, males, oral dosing, site: lung, lesion: adenoma, dosed 76 weeks, study length 76 weeks): 532 mg/kg/day (inactive)

What does the source list for `NC(=O)c1cccnc1`?
carcinogen call (mouse, strain Swiss albino, females, in drinking water, site: lung, lesion: several types, types named in the paper, dosed 113 weeks, study length 113 weeks): negative (inactive); carcinogen call (mouse, strain Swiss albino, males, in drinking water, site: lung, lesion: several types, types named in the paper, dosed 109 weeks, study length 109 weeks): negative (inactive)
